According to US8501752B2, “Methods for treating cancer and other pathological proliferating disorders by inhibiting mitosis using pyrrolo[2,3-d]pyrimidines” (Duquesne University of the Holy Ghost, priority 2005, dated 2013):
“Also recorded” adds a separate entry of the source. Like-named read-outs stand apart in the source and are kept apart here.

Columns and labels:
MCF-7 cells = experiment: Cytotoxicity, drug-sensitive MCF-7 cells
From the text: (§2) These cell lines are resistant to anticancer drugs due to overexpression of the transport proteins P-glycoprotein or MRP1.

NCI/ADR cells = experiment: Cytotoxicity, NCI/ADR cells that overexpress P-glycoprotein; conditions: for Resistance (NCI/ADR relative to MCF-7): P-glycoprotein
From the text: as §2

MCF-7/VP cells = experiment: Cytotoxicity, MCF-7/VP cells that overexpress MRP1; conditions: for Resistance (MCF-7/VP relative to MCF-7): MRP1
From the text: as §2

[1] = system: T24, MCF-7, NCI/ADR, MCF-7/VP; experiment: Cytotoxicity, panel of human tumor cell lines of Table 3 (text summaries)
From the text: as §2

P-glycoprotein = target: T1, P-glycoprotein (Homo sapiens, UniProt P08183); experiment: P-glycoprotein antagonism: sensitivity of NCI/ADR cells to vinblastine; assay type: cell-based; conditions: for effect on P-glycoprotein-mediated resistance (in words): absence or presence of 50 nM vinblastine
T1 construct: NCI/ADR cells that overexpress P-glycoprotein; endogenous in cells; host or cells: NCI/ADR cells
T1 sequence (P08183 whole entry): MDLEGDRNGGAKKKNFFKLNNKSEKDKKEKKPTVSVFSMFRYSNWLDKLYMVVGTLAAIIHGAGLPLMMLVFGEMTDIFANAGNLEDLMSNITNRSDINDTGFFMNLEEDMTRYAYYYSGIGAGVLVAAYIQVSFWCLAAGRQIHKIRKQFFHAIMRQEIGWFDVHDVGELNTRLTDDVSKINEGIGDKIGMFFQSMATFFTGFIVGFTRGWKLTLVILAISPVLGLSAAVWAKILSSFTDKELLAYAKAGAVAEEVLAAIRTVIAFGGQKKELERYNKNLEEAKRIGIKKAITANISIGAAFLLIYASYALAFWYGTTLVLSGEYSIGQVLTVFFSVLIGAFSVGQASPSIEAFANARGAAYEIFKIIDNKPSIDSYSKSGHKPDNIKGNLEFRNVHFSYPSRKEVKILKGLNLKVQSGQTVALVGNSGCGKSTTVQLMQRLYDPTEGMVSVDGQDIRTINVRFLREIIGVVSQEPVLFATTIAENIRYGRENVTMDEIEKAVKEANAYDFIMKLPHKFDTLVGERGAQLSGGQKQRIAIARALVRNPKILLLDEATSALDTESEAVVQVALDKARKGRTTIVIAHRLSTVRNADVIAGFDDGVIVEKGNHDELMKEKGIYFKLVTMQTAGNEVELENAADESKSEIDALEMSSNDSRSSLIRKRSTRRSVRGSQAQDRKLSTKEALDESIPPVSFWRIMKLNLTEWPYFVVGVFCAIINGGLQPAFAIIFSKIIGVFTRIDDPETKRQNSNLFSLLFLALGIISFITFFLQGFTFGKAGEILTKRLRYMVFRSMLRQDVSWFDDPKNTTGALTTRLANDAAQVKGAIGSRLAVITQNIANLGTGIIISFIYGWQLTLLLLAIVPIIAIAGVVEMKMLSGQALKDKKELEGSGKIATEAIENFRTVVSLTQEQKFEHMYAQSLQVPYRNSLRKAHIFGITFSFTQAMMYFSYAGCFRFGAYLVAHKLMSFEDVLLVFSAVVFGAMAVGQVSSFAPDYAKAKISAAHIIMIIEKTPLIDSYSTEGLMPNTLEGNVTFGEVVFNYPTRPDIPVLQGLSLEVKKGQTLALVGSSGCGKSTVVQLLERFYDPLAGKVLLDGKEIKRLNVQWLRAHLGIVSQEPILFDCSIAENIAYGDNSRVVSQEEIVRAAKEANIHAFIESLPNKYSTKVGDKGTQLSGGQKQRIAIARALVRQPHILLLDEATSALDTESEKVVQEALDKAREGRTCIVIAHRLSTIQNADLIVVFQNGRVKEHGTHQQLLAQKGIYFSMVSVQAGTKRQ
From the text: To determine if this is due to inhibition of drug transport activity by these proteins, the effects of these compounds on P-glycoprotein were further characterized. The effects of the compounds on the sensitivity of NCI/ADR cells to vinblastine and of MCF-7/VP cells to vincristine were examined to evaluate antagonism of P-glycoprotein and MRP1, respectively. FIGS. 4a-b present graphs of antagonism score versus concentration for P-glycoprotein and MRP1, respectively.
The Pgp antagonism score is calculated as the percentage survival of cells in the absence of vinblastine/percentage survival in the presence of vinblastine. […] The MRP1 antagonism score is calculated as the percentage survival of cells in the absence of vincristine/percentage survival in the presence of vincristine. […] Concentrations of Compounds 1-5 above their IC50 toward MCF-7 cells are not indicated. Data for one of three similar experiments is shown.

[2] = system: NCI 60 human tumor cell lines; experiment: NCI IVCLSP growth inhibition, whole panel (text summaries); assay type: cell-based; conditions: NCI 60 tumor panel
Protocol: FIG. 1 presents nine compounds that were tested using the National Cancer Institute (NCI) 60 human tumor cell lines. The cells lines, which represent leukemia, melanoma, and cancers of the lung, colon, brain, ovary, breast, prostate, and kidney, are listed in Table 1.
Compounds 1-9 were tested according to the NCI Developmental Therapeutics Program (DTP) In Vitro Cell Line Screening Project (IVCLSP). […] Methodology for testing under the IVCLSP is as follows: The human tumor cell lines of the cancer screening panel are grown in RPMI 1640 medium containing 5% fetal bovine serum and 2 mM L-glutamine. For a typical screening experiment, cells are inoculated into 96 well microtiter plates in 100 μL at plating densities ranging from 5,000 to 40,000 cells/well depending on the doubling time of individual cell lines. After cell inoculation, the microtiter plates are incubated at 37° C., 5% CO2, 95% air and 100% relative humidity for 24 h prior to addition of experimental drugs.
After 24 h, two plates of each cell line are fixed in situ with TCA, to represent a measurement of the cell population for each cell line at the time of drug addition (Tz). Experimental drugs are solubilized in dimethyl sulfoxide at 400-fold the desired final maximum test concentration and stored frozen prior to use. At the time of drug addition, an aliquot of frozen concentrate is thawed and diluted to twice the desired final maximum test concentration with complete medium containing 50 μg/ml gentamicin. Additional four, 10-fold or ½ log serial dilutions are made to provide a total of five drug concentrations plus control. Aliquots of 100 μl of these different drug dilutions are added to the appropriate microtiter wells already containing 100 μl of medium, resulting in the required final drug concentrations.
Following drug addition, the plates are incubated for an additional 48 h at 37° C., 5% CO2, 95% air, and 100% relative humidity. For adherent cells, the assay is terminated by the addition of cold TCA. Cells are fixed in situ by the gentle addition of 50 μl of cold 50% (w/v) TCA (final concentration, 10% TCA) and incubated for 60 minutes at 4° C. The supernatant is discarded, and the plates are washed five times with tap water and air dried. Sulforhodamine B (SRB) solution (100 μl) at 0.4% (w/v) in 1% acetic acid is added to each well, and plates are incubated for 10 minutes at room temperature. After staining, unbound dye is removed by washing five times with 1% acetic acid and the plates are air dried. Bound stain is subsequently solubilized with 10 mM trizma base, and the absorbance is read on an automated plate reader at a wavelength of 515 nm. For suspension cells, the methodology is the same except that the assay is terminated by fixing settled cells at the bottom of the wells by gently adding 50 μl of 80% TCA (final concentration, 16% TCA). Using the seven absorbance measurements [time zero, (Tz), control growth, (C), and test growth in the presence of drug at the five concentration levels (Ti)], the percentage growth is calculated at each of the drug concentrations levels. Percentage growth inhibition is calculated as: [(Ti−Tz)/(C−Tz)]×100 for concentrations for which Ti>/=Tz [(Ti−Tz)/Tz]×100 for concentrations for which Ti<Tz.
Three dose response parameters are calculated for each experimental agent. […] The drug concentration resulting in total growth inhibition (TGI) is calculated from Ti=Tz. […]

[3] = system: T24 human bladder carcinoma cells; experiment: Cytotoxicity, T24 cells; assay type: cell-based; conditions: for IC50: mean ± SEM for 3 experiments
[4] = system: HL-60 human promyelocytic leukemia cells; experiment: Flow cytometric cell cycle phase distribution; assay type: cell-based; conditions: 24 hours treatment; for increase of the percentage of cells in the G2/M phases: HL-60; for cell cycle distribution, G2/M / cell cycle distribution, G9/G1 / cell cycle distribution, S: percentage of HL-60 cells
Protocol: Flow cytometric analyses were used to assess the effects of Compound 1 and various antimicrotubule drugs on the cell cycle phase distributions of HL-60 human promyelocytic leukemia cells. The percentage of cells in the G2/M phases were increased approximately 2-fold by treatment of the cells for 24 hours with either TAXOL (paclitaxel), vinblastine, colchicine, or Compound 1.

[5] = system: A-10 rat smooth muscle cells; experiment: Microtubule structure, indirect immunofluorescence, A-10 cells; assay type: cell-based; conditions: 24 hours; 625 nM TAXOL, 167 nM vinblastine, 900 nM Compound 1
Protocol: Because of the morphological effects of Compound 1 on cultured cells and the NCI COMPARE analysis results described above, the effects of vinblastine, TAXOL (paclitaxel), and Compound 1 on microtubule structure were examined. For these studies, A-10 rat smooth muscle cells were used since they grow as flat monolayers that are amenable to imaging. The A-10 cells were treated for 24 hours with EtOH (control), 625 nM TAXOL (paclitaxel), 167 nM vinblastine, and 900 nM of Compound 1. Microtubules were then visualized by indirect immunofluoresence staining with B-tubulin antibodies. FIGS. 2a-d present representative fields for the control, TAXOL (paclitaxel), vinblastine, and Compound 1 (“149”), respectively. None of these compounds affected the morphology of stress fibers composed of microfilaments.

p53 = experiment: Western blot, p53 expression in MCF-7 cells; assay type: cell-based, human; conditions: 24 hours, various concentrations
Protocol: (§1) To further characterize the cell cycle effects of Compound 1 on human tumor cells, MCF-7 cells were treated for 24 hours with various concentrations of Compound 1, vinblastine, or TAXOL (paclitaxel). Cells were then harvested, lysed, and analyzed for levels of expression of p53 and WAF1 by Western Blot analyses. […] Compound 1 is identified as “149” in these figures. […] None of these treatments affected the expression of bcl-2 or P-tubulin in the MCF-7 cells.

WAF1 = experiment: Western blot, WAF1 expression in MCF-7 cells; assay type: cell-based, human; conditions: 24 hours, various concentrations
Protocol: as §1

[6] = read-out: Cytotoxicity IC50, MCF-7, mean ± SEM for 3 experiments
[7] = read-out: Cytotoxicity IC50, NCI/ADR, mean ± SEM for 3 experiments
[8] = read-out: Cytotoxicity IC50, MCF-7/VP, mean ± SEM for 3 experiments
[9] = Homo sapiens, MCF7, read-out: drug sensitivity (IC50), MCF-7
[10] = Homo sapiens, NCI/ADR-RES, read-out: drug sensitivity (IC50), NCI/ADR
[11] = Homo sapiens, MCF7-VP, read-out: drug sensitivity (IC50), MCF-7/VP

Compound	Resistance (NCI/ADR relative to MCF-7) (NCI/ADR cells)	Resistance (MCF-7/VP relative to MCF-7) (MCF-7/VP cells)	effect of P-glycoprotein / MRP1 overexpression on cell sensitivity (in words) [1]	effect on P-glycoprotein-mediated resistance (in words) (P-glycoprotein)	IC50 (MCF-7 cells; [6])	IC50 (NCI/ADR cells; [7])	IC50 (MCF-7/VP cells; [8])	IC50 [3]	IC50 (MCF-7 cells; [9])	increase of the percentage of cells in the G2/M phases [4]	cell cycle distribution, G2/M [4]	cell cycle distribution, G9/G1 [4]	cell cycle distribution, S [4]	IC50 (NCI/ADR cells; [10])	IC50 (MCF-7/VP cells; [11])	also measured
N.N.[Cl][Pt][Cl] [Cisplatin, cisplatin, reference compound]	1.1	0.6	insensitive to transporter expression													IC50 (MCF-7 cells; read-out: drug sensitivity (IC50), MCF-7, Table 4, mean ± SEM for 3 experiments): 11500 ± 4100 nM; IC50 (NCI/ADR cells; read-out: drug sensitivity (IC50), NCI/ADR, Table 4, P-glycoprotein overexpressing, mean ± SEM for 3 experiments): 12200 ± 4200 nM; IC50 (MCF-7/VP cells; read-out: drug sensitivity (IC50), MCF-7/VP, Table 4, MRP1 overexpressing, mean ± SEM for 3 experiments): 7000 ± 2900 nM
Cc1nc(N)nc2c1c(CCc1ccccc1)cn2Cc1ccccc1 [Compound 5]				dose-dependent sensitization	10700 ± 4700 nM	18200 ± 7400 nM	118000 ± 6000 nM	12700 ± 2300 nM								GI50 values, level across the tumor cell lines (in words) [2]: millimolar or less range for 52 of the tumor cell lines; also recorded: micromolar GI50 values for three of the tumor cell lines
COc1ccccc1CCc1cn(Cc2ccccc2)c2nc(N)nc(C)c12 [Compound 4]			eliminated any resistance due to overexpression of either P-glycoprotein or MRP1	dose-dependent sensitization	2300 ± 600 nM	2700 ± 400 nM	2600 ± 100 nM	2500 ± 300 nM								more potent than the others in reversing P-glycoprotein-mediated resistance (P-glycoprotein; 50 nM vinblastine): approximately 10 fold; effect on P-glycoprotein-mediated resistance (in words) (P-glycoprotein; listed as 2-OMe analog): effective at reversing P-glycoprotein mediated resistance; cytotoxic potency, better than the 3- or 4-OMe [1]: about 10 times; cytotoxic potency, better than the unsubstituted phenyl analog Compound 5 [1]: ~5 times; less potent as an antimitotic agent than the 3,4,5-triOMe analog [1]: about 10 times; cytotoxic potency (in words) ([1]; all tested cell lines): substantially increased the potency toward all of the tested cell lines; GI50 values, level across the tumor cell lines (in words) [2]: micromolar to millimolar range
CC[C@]1(O)C[C@@H]2CN(CCc3c([nH]c4ccccc34)[C@@](C(=O)OC)(c3cc4c(cc3OC)N(C)[C@H]3[C@@](O)(C(=O)OC)[C@H](OC(C)=O)[C@]5(CC)C=CCN6CC[C@]43[C@@H]65)C2)C1 [Vinblastine, vinblastine]	>134	1.1							2.8 ± 0.5 nM	approximately 2 fold	10.1 ± 0.3	83.3 ± 1.3	6.6 ± 1.6	> 375 nM	3 ± 0.6 nM	effect on microtubule structure (in words) [5]: caused marked depletion of cellular microtubules; level of expression of p53 (in words) (p53): marked increases; level of expression of WAF1 (in words) (WAF1): marked increases
COc1cc2c(c(OC)c1OC)-c1ccc(OC)c(=O)cc1[C@@H](NC(C)=O)CC2 [Colchicine, colchicine]										approximately 2 fold	11.9 ± 0.3	84.1 ± 0.7	4.0 ± 1.4			
CC(=O)O[C@H]1C(=O)[C@@]2(C)[C@H]([C@H](OC(=O)c3ccccc3)[C@]3(O)C[C@H](OC(=O)[C@H](O)[C@@H](NC(=O)c4ccccc4)c4ccccc4)C(C)=C1C3(C)C)[C@]1(OC(C)=O)CO[C@@H]1C[C@@H]2O [TAXOL (paclitaxel), paclitaxel]	1080	1.1							2.5 ± 0.6 nM	approximately 2 fold	10.5 ± 0.1	67.3 ± 0.4	22.2 ± 0.4	2700 ± 500 nM	2.8 ± 0.6 nM	effect on microtubule structure (in words) [5]: promoted increased staining of microtubule clusters; level of expression of p53 (in words) (p53): marked increases; level of expression of WAF1 (in words) (WAF1): marked increases
CC[C@]1(O)C[C@H]2CN(CCc3c([nH]c4ccccc34)[C@@](C(=O)OC)(c3cc4c(cc3OC)N(C=O)[C@H]3[C@@](O)(C(=O)OC)[C@H](OC(C)=O)[C@]5(CC)C=CCN6CC[C@]43[C@@H]65)C2)C1 [Vincristine, vincristine, reference compound]	167	15.5	overexpression of MRP1 also confers substantial resistance						0.6 ± 0.1 nM					100 nM	9.3 ± 1.4 nM	
COc1ccc(CCc2cn(Cc3ccccc3)c3nc(N)nc(C)c23)cc1 [Compound 2]				dose-dependent sensitization	13000 ± 3500 nM	21700 ± 4400 nM	22700 ± 3700 nM	31700 ± 1700 nM								change of cytotoxic potency by substitution (in words) ([3]; T24, relative to unsubstituted Compound 5): decreased the cytotoxic potency
